From patent publication US20250205178A1, “METHODS AND COMPOSITIONS FOR INHIBITING VIRAL […]” (ARIZONA BOARD OF REGENTS ON BEHALF OF THE UNIVERSITY OF …, priority 2022, published 2025)
“Also recorded” adds a separate entry of the source. Read-outs that look alike come from different tables or passages of the source.

What was measured:
[1] = biological target: T1, YFV MTase (Yellow fever virus, UniProt P03314); assay type: binding; settings: read-out: KD of FL-NAH
[2] = biological target: ZIKV MTase (Zika virus, UniProt A0A024B7W1); assay type: binding; settings: read-out: KD of FL-NAH
Chain of ZIKV MTase (A0A024B7W1 2521-2785 limits assumed): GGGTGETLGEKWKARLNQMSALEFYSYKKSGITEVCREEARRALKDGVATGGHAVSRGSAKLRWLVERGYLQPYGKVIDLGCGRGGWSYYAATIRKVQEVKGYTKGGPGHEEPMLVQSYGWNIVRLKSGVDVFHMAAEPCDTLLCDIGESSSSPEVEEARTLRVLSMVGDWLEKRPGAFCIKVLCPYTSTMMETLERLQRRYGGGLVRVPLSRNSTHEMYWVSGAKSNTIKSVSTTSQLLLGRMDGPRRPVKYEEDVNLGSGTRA

[3] = biological target: T2, WNV MTase (West Nile virus, UniProt Q9Q6P4); assay type: binding; settings: read-out: KD of FL-NAH
T2 sequence (Q9Q6P4 2529-2794 limits assumed): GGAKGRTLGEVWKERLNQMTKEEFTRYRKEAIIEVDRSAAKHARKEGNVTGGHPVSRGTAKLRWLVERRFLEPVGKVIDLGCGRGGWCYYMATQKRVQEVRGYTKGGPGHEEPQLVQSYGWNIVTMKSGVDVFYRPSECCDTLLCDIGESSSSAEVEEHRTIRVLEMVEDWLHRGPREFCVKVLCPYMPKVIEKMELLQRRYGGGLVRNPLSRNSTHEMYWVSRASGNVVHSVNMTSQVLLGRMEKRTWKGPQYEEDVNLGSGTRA

[4] = biological target: T3, DENV3 MTase (Dengue virus type 3, UniProt Q6YMS4); assay: FL-NAH FP binding assay, DENV3 MTase
T3 sequence (Q6YMS4 2492-2753): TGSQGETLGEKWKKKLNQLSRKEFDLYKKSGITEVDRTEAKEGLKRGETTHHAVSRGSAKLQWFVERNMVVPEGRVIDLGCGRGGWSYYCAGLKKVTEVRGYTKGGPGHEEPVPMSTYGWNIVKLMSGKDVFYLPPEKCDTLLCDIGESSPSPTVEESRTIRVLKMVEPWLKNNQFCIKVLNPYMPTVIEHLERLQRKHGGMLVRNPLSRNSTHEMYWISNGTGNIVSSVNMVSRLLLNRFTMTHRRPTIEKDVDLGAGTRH

[5] = biological target: NSP14-NSP10 complex (Severe acute respiratory syndrome coronavirus 2, UniProt P0DTD1); assay: FL-NAH FP binding assay, NSP14-NSP10 complex; set-up: species or system SARS-CoV-2; settings: 50 nM FL-NAH, read-out: binding affinity of FL-NAH
Protocol: FP was calculated by measuring the parallel and perpendicular fluorescence with excitation and emission wavelengths of 485 nm and 528 nm, respectively. N=3
Using purified proteins, we investigated whether binding of FL-NAH to the NSP14 MTase could be monitored by FP. […] In addition, we investigated if FL-NAH is also bound to the NSP14/NSP10 complex. […] The results confirmed that NSP10 was not required for the NSP14 MTase function. Since NSP10 had only minimal effects on the NSP14 MTase activity, all the following experiments were performed using the NSP14 MTase alone.

[6] = biological target: Human RNA MTase (hRNMT) (Homo sapiens, UniProt O43148); settings: read-out: IC50-disp
Chain of Human RNA MTase (hRNMT) (O43148 whole entry): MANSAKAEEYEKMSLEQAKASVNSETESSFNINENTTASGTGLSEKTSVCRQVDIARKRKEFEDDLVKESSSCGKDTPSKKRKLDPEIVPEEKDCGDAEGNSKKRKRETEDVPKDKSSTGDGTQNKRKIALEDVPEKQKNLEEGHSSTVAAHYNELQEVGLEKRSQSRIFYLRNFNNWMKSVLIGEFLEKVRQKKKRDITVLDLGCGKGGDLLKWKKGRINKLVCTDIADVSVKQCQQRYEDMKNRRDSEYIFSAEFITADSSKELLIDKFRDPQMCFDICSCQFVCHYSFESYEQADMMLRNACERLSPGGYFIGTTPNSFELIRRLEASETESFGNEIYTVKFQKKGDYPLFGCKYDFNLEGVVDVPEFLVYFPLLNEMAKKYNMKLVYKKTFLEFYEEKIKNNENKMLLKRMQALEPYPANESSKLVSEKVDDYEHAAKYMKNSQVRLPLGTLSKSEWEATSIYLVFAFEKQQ

[7] = test system: SARS-CoV-2; settings: read-out: Antiviral EC50; Vero cells, plaques at 72 h post-infection
[8] = biological target: ZIKV N7 MTase (Zika virus, UniProt A0A024B7W1); assay type: biochemical
Chain of ZIKV N7 MTase (A0A024B7W1 2521-2785 limits assumed): as the sequence (A0A024B7W1 2521-2785 limits assumed) above

[9] = biological target: DENV3 NS5 N7 MTase (Dengue virus type 3, UniProt Q6YMS4); assay: HTRF MTase functional assay, DENV3; assay type: biochemical
Chain of DENV3 NS5 N7 MTase (Q6YMS4 2492-2753): as the sequence (Q6YMS4 2492-2753) above

[10] = biological target: SARS-CoV-2 NSP14 (Severe acute respiratory syndrome coronavirus 2, UniProt P0DTD1); settings: read-out: NSP14 KD; MST, NSP14 40 nM
[11] = test system: ZIKV; assay: Antiviral immunofluorescence assay (IFA), ZIKV; assay type: cell-based
[12] = biological target: T4, SARS-CoV-2 NSP14 MTase (Severe acute respiratory syndrome coronavirus 2, UniProt P0DTD1); assay type: binding; settings: for IC50: 50 nM FL-NAH, NSP14 MTase, read-out: IC50-disp, inhibition of FL-NAH binding
[13] = biological target: T5, DENV3 NS5 MTase (Dengue virus type 3, UniProt Q6YMS4); assay: FL-NAH FP displacement assay, DENV3 NS5; assay type: binding
T5 sequence (Q6YMS4 2492-2753): as above

[14] = biological target: YFV N7 MTase (Yellow fever virus, UniProt P03314); settings: read-out: IC50-HTRF
Chain of YFV N7 MTase (P03314 2507-2771 limits assumed): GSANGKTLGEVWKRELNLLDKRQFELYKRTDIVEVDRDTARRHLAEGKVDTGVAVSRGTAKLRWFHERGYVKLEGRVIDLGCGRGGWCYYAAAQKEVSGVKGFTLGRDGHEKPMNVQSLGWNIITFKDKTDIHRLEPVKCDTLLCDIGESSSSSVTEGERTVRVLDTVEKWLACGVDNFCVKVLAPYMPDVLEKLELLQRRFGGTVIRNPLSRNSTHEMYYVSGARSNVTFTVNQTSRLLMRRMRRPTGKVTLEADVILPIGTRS

[15] = biological target: T4, SARS-CoV-2 NSP14 MTase; settings: read-out: IC50-TLC, NSP14 MTase activity
[16] = biological target: T2, WNV MTase; assay type: binding
[17] = test system: SARS-CoV-2 WT strain (Washington strain); assay: Immunofluorescence assay, SARS-CoV-2 WT Washington strain; assay type: cell-based; settings: Vero E6, WT Washington strain 0.01 MOI, 24 h
[18] = biological target: T1, YFV MTase; settings: read-out: IC50-disp
[19] = biological target: T3, DENV3 MTase; assay: TLC MTase activity assay, DENV3; assay type: biochemical
[20] = biological target: T5, DENV3 NS5 MTase; settings: MST
[21] = test system: human lung carcinoma A549 cells; assay: WST-8 cytotoxicity assay in A549 cells; assay type: cell-based
Protocol: As previously mentioned, cytotoxicity to the human lung carcinoma A549 cells was assessed using a WST-8 cell proliferation assay kit (Dojindo Molecular Technologies, Inc.).
To further characterize these candidate inhibitors, we investigated the cytotoxicity of NSC 111552 and 288387 to human A549 lung carcinoma cells, using a WST-8 cell viability kit, as we described previously.

[22] = biological target: SARS-CoV-2 NSP14 N7-MTase (Severe acute respiratory syndrome coronavirus 2, UniProt P0DTD1); settings: read-out: IC50-HTRF, NSP14 MTase activity; GpppA dinucleotide substrate
[23] = test system: SARS-CoV-2 WA strain; assay: Checkerboard compound combination assay (plaque) in Vero-E6 cells; assay type: cell-based
Protocol: The 2D compound-compound interactions were determined by checkerboard titration in a 96-well plate. Vero-E6 cells were seeded one day before combination test at 3×10^4 cells/each well. The first compound (A) was serially diluted along the x axis (columns 3 to 8); and the second compound (B) was serially diluted along the y axis (from row A to F) in the 96-well plate. The last two columns (columns 9 and 10) contained compound B-alone controls and the last two rows (row G and H) contained compound A-alone controls. After the cells grew into monolayer, the medium was discard, followed by addition of 50 μl compound mixture. Then 50 μl SARS-CoV-2 WA strain was added at MOI of 0.01.
The plate was incubated at 37° C., 5% CO2 for 1 hour. Then 100 μl overlay medium (DMEM+2% FBS+1% Methylcellulose) was added and the plate was further incubated at 37° C., 5% CO2. After 3 days, cells were fixed with 10% neutral formalin for 30 minutes, wash with water for more than 6 times and then stained with 50 μl Crystal Violet (0.5% in methanol/water) for 4 minutes. The staining solution was removed by aspiration and the plate was rinsed with water, and dried thoroughly. Plaques were counted and numbers were recorded to calculate the percentage of inhibition. SynergyFinder was used to analyze the synergistic effect of the two compounds (https://synergyfinder.fimm.fi/synergy/20230202071113839465/). Each combination testing experiment has three replicates.

[24] = biological target: ZIKV NS5 MTase (Zika virus, UniProt A0A024B7W1); assay type: binding
Chain of ZIKV NS5 MTase (A0A024B7W1 2521-2785 limits assumed): as the sequence (A0A024B7W1 2521-2785 limits assumed) above

[25] = biological target: T4, SARS-CoV-2 NSP14 MTase; settings: read-out: IC50-MS, NSP14 MTase activity
[26] = biological target: WNV N7 MTase (West Nile virus, UniProt Q9Q6P4); assay type: biochemical
Chain of WNV N7 MTase (Q9Q6P4 2529-2794 limits assumed): as the sequence (Q9Q6P4 2529-2794 limits assumed) above

[27] = test system: DENV2; assay: Antiviral immunofluorescence assay (IFA), DENV2; assay type: cell-based
[28] = test system: SARS-CoV-2 Omicron strain (BA.1.1); assay: Immunofluorescence assay, SARS-CoV-2 Omicron strain; assay type: cell-based
[29] = test system: DENV2 replicon; settings: read-out: EC50-DENV2 Replic; DENV2 replicon cell line
[30] = biological target: SARS-CoV-2 NSP16 MTase (Severe acute respiratory syndrome coronavirus 2, UniProt P0DTD1); assay: FL-NAH FP displacement assay, NSP16; assay type: binding; settings: SAH 25 μM, 31.25 μM or 50 μM; NSP16 0.5 μM; p<0.0001

T1 sequence (P03314 2507-2771 limits assumed): as the sequence (P03314 2507-2771 limits assumed) above

## Nc1ncnc2c1ncn2[C@@H]1O[C@H](CN(CC[C@H](N)C(=O)O)Cc2cn(CCNC(=O)c3ccc4c(c3)C(=O)OC43c4ccc(O)cc4Oc4cc(O)ccc43)nn2)[C@@H](O)[C@H]1O [FL-NAH, fluorescein N-adenosylhomocysteine]
[1]
  Kd: 3 µM
[2]
  Kd: 3.5 µM
[3]
  Kd: 0.28 µM
[4]
  Kd: 0.61 µM
[5]
  Kd: 0.81 µM

## CC(=O)c1cc(O)c2ccccc2c1O [NSC 111552]
[6]
  IC50: 63.3 µM
[7]
  EC50: 8.5 µM
[8]
  IC50: 12.9 µM
[9]
  IC50: 3.9 µM
[10]
  Kd: 2.1 µM
[11]
  EC50: 0.9 µM
[12]
  IC50: 5.1 µM
[13]; DENV3, DTT (1 mM)
  IC50: 1.6 µM
[13]; DENV3, No DTT
  IC50: 1.1 µM
[14]
  IC50: 26.7 µM
[15]
  IC50: 7 µM
[16]
  IC50: 5.7 µM
[17]
  viral titer in IFA: dose-dependently reduced the viral titer
[18]
  IC50: 46 µM
[19]
  IC50: 1.1 µM
[20]
  Kd: 4.6 µM
[21]
  CC50: ~187 µM
[22]
  IC50: 2.2 µM
[23]; NSC111552 in combination with nirmatrelvir
  maximal ZIP-score: 21
[23]; NSC111552 in combination with remdesivir
  maximal ZIP-score: 24
[24]
  IC50: 7.3 µM
[25]
  IC50: 1.5 µM
[26]
  IC50: 5.2 µM
[27]
  EC50: 0.32 µM
[28]
  viral titer in IFA: dose-dependently reduced the viral titer
[29]
  EC50: 5 µM

## COCCn1c2nc(=O)n(-c3ccccc3)c(=O)c-2nc2ccccc21 [NSC 288387]
[6]
  IC50: 35.5 µM
[7]
  EC50: 5.7 µM
[8]
  IC50: 6.8 µM
[9]
  IC50: 6 µM
[10]
  Kd: 1.5 µM
[11]
  EC50: 0.69 µM
[12]
  IC50: 2.7 µM
[13]; DENV3, DTT (1 mM)
  IC50: 3.9 µM
[13]; DENV3, No DTT
  IC50: 1.3 µM
[13]; with vs without DTT
  effect of DTT (1 mM) on potency in inhibiting FL-NAH binding: reducing its potency by about threefold
[14]
  IC50: 11.2 µM
[15]
  IC50: 2.5 µM
[16]
  IC50: 13 µM
[17]
  viral titer in IFA: dose-dependently reduced the viral titer
[18]
  IC50: 10 µM
[19]
  IC50: 1.6 µM
[20]
  Kd: 3.2 µM
[21]
  CC50: 57 µM
[22]
  IC50: 2.2 µM
[24]
  IC50: 4.9 µM
[25]
  IC50: 4.3 µM
[26]
  IC50: 12.2 µM
[27]
  EC50: 0.53 µM
[28]
  viral titer in IFA: dose-dependently reduced the viral titer
[29]
  EC50: 11.4 µM

## Nc1ncnc2c1ncn2[C@@H]1O[C@H](CSCC[C@H](N)C(=O)O)[C@@H](O)[C@H]1O [SAH, S-adenosyl-L-homocysteine]
[12]; SAH 25 μM, 31.25 μM or 50 μM, NSP14 0.5 μM, p<0.0001
  inhibition of FL-NAH binding (FP): inhibited
[30]
  inhibition of FL-NAH binding (FP): inhibited; also recorded: quenched
[24]
  inhibition of FL-NAH binding (FP): inhibited; also recorded: quenched

## C[S+](CC[C@H](N)C(=O)O)C[C@H]1O[C@@H](n2cnc3c(N)ncnc32)[C@H](O)[C@@H]1O (stereo partly shown) [SAM, S-adenosylmethionine]
[30]
  inhibition of FL-NAH binding (FP): quenched
[24]
  inhibition of FL-NAH binding (FP): quenched

## CC(C)(C)[C@H](NC(=O)C(F)(F)F)C(=O)N1C[C@H]2[C@@H]([C@H]1C(=O)N[C@H](C#N)C[C@@H]1CCNC1=O)C2(C)C [nirmatrelvir]
[23]; Severe acute respiratory syndrome coronavirus 2, Vero C1008, nirmatrelvir alone, read-out: EC50
  EC50: 0.056 µM
[23]; Severe acute respiratory syndrome coronavirus 2, Vero C1008, nirmatrelvir in the presence of NSC111552
  EC50: ~0.031 µM
[23]; nirmatrelvir, in the presence of NSC111552
  EC50 shift: ~1.8 fold

## CCC(CC)COC(=O)[C@H](C)N[P@](=O)(OC[C@H]1O[C@@](C#N)(c2ccc3c(N)ncnn23)[C@H](O)[C@@H]1O)Oc1ccccc1 [remdesivir]
[23]; Severe acute respiratory syndrome coronavirus 2, Vero C1008, remdesivir alone, read-out: EC50
  EC50: 0.04 µM
[23]; Severe acute respiratory syndrome coronavirus 2, Vero C1008, remdesivir with NSC111552 ([…]), read-out: EC50
  EC50: 0.017 µM
[23]; remdesivir with NSC111552 ([…])
  EC50 decrease: about 2.4 fold
